Data as given in US8524737B2, “Bi- and polycyclic substituted isoquinoline and isoquinolinone derivatives” (Sanofi, priority 2008, dated 2013).

Target: T1, human recombinant ROCK II (Homo sapiens, UniProt O75116)
T1 construct: recombinant human ROCK-II residues 11-552; His6 (N); purchased Millipore GmbH, Schwalbach, Germany
Test: Determination of Rho Kinase Inhibition (ROCK II, Caliper peptide phosphorylation assay)
Format: biochemical
Settings: tested in the form (salt or free base) obtained in the examples
Experimental: Determination of Rho Kinase Inhibition To measure Rho-kinase inhibition, IC50 values were determined according to the following protocol: Active human recombinant ROCK II (N-terminal His6-tagged recombinant human ROCK-II residues 11-552) was purchased from Millipore GmbH, Schwalbach, Germany. The peptide substrate, Fluorescein-AKRRRLSSLRA-COOH, was obtained from JPT Peptide Technologies, Berlin, Germany. Adenosine-5′-triphosphate (ATP), bovine serum albumine (BSA), dimethylsulphoxide (DMSO), 4-(2-hydroxyethyl)piperazine-1-ethanesulfonic acid (Hepes), Brij-35, dithiothreitol (DTT) and Pluronic F-68 were purchased from Sigma-Aldrich, Munich, Germany. Tris(hydroxymethyl)-aminomethane (Tris), magnesium chloride, NaOH, 1M HCl and EDTA were obtained from Merck Biosciences, Darmstadt, Germany. “Complete” protease inhibitor was from Roche Diagnostics, Mannheim, Germany. Test compounds were diluted to the appropriate concentrations in buffer 1 (25 mM Tris-HCl, pH 7.4, 5 mM MgCl2, 2 mM DTT, 0.02% (w/v) BSA, 0.01% Pluronic F-68 and 3% DMSO). The ROCK II enzyme was diluted to a concentration of 100 ng/ml in buffer 2 (25 mM Tris-HCl, pH 7.4, 5 mM MgCl2, 2 mM DTT and 0.02% (w/v) BSA). The peptide substrate and ATP were diluted to concentrations of 3 μM and 120 μM, respectively, in the buffer 2. Two μl of the compound solution were mixed with 2 μl of the diluted enzyme in a 384-well small volume microtiter plate (Greiner, Bio-One, Frickenhausen, Germany), and the kinase reaction was initiated by addition of 2 μl of the solution containing peptide substrate and ATP. After 60 min incubation at 32° C., the reaction was stopped by addition of 20 μl of a solution containing 100 mM Hepes-NaOH, pH 7.4, 0.015% (v/v) Brij-35, 45 mM EDTA and 0.227% chip coating reagent 1 (Caliper Lifescience Inc, Hopkinton, Mass.). Phosphorylation of the substrate peptide was then detected on a Caliper 3000 instrument essentially as described by Pommereau et al (J. Biomol. Screening 2004, 9(5), 409-416). Separation conditions were as follows: Pressure −1.3 psi, upstream voltage −1562 V, downstream voltage −500 V, sample sip time 200 ms. Positive controls (buffer 1 instead of compound) and negative controls (buffer 1 instead of compound and buffer 2 instead of ROCK II) were run in parallel on each plate. The following products/compounds were tested in said assay by using the respective form (salt or free base) obtained as in the examples described above and the following activities were measured

T1 sequence (O75116 11-552): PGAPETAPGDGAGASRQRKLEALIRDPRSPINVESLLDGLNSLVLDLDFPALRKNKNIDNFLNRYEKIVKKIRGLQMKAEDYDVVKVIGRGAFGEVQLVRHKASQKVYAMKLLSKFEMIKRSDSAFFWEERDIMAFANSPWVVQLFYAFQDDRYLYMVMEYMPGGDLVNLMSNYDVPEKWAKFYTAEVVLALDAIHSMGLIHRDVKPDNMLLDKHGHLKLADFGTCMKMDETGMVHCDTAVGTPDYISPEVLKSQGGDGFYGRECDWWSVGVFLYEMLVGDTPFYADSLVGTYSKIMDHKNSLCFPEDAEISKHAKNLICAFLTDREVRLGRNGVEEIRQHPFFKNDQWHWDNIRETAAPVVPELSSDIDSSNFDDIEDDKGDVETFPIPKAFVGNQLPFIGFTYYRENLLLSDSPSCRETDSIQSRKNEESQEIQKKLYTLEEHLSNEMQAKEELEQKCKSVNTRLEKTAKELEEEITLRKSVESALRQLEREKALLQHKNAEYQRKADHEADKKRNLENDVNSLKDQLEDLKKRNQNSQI

Row | Compound | IC50 [nM] | pIC50
1 | NC1C2CC3CC1CC(Oc1cc4cc[nH]c(=O)c4cc1Cl)(C3)C2 (single isomer, unassigned) [Example 1, 6-(4-Amino-adamantan-1-yloxy)-7-chloro-2H-isoquinolin-1-one] | 10 to 100 | –
2 | C=CCC1(N)C2CC3CC1CC(Oc1cc4cc[nH]c(=O)c4cc1Cl)(C3)C2 (single isomer, unassigned) [Example 4, 6-(4-Allyl-4-amino-adamantan-1-yloxy)-7-chloro-2H-isoquinolin-1-one] | 100 to 1000 | –
3 | CCCC1(N)C2CC3CC1CC(Oc1cc4cc[nH]c(=O)c4cc1Cl)(C3)C2 (single isomer, unassigned) [Example 5, 6-(4-Amino-4-propyl-adamantan-1-yloxy)-7-chloro-2H-isoquinolin-1-one] | 10 to 100 | –
4 | CCCC1(N)C2CC3CC1CC(Oc1cc4cc[nH]c(=O)c4cc1Cl)(C3)C2 (single isomer, unassigned) [Example 6, 6-(4-Amino-4-propyl-adamantan-1-yloxy)-7-chloro-2H-isoquinolin-1-one] | 100 to 1000 | –
5 | NC1(c2ccccc2)C2CC3CC1CC(Oc1cc4cc[nH]c(=O)c4cc1Cl)(C3)C2 (single isomer, unassigned) [Example 9, 6-(4-Amino-4-phenyl-adamantan-1-yloxy)-7-chloro-2H-isoquinolin-1-one] | 100 to 1000 | –
6 | O=c1[nH]ccc2cc(OC34CC5CC(C3)C(NCc3ccccc3)C(C5)C4)c(Cl)cc12 (single isomer, unassigned) [Example 12, 6-(4-Benzylamino-adamantan-1-yloxy)-7-chloro-2H-isoquinolin-1-one] | 100 to 1000 | –
7 | N[C@]12CC3CC(C1)[C@H](Oc1cc4cc[nH]c(=O)c4cc1Cl)C(C3)C2 (single isomer, unassigned) [Example 14, Cis-6-(5-Amino-adamantan-2-yloxy)-7-chloro-2H-isoquinolin-1-one] | ≤ 10 | –
8 | N[C@]12CC3CC(C1)[C@@H](Oc1cc4cc[nH]c(=O)c4cc1Cl)C(C3)C2 (single isomer, unassigned) [Example 15, Trans-6-(5-Amino-adamantan-2-yloxy)-7-chloro-2H-isoquinolin-1-one] | ≤ 10 | –
9 | N[C@H]1C[C@H]2COC[C@@H](C1)[C@@H]2Oc1cc2cc[nH]c(=O)c2cc1Cl [Example 18, 6-{[(7-endo,9-syn)-7-amino-3-oxabicyclo[3.3.1]non-9-yl]oxy}-7-chloroisoquinolin-1(2H)-one] | 10 to 100 | –
10 | O=c1[nH]ccc2cc(O[C@H]3CC[C@@]4(CCCN4)CC3)c(Cl)cc12 [Example 22, 6-(1-Aza-spiro[4.5]dec-8-yloxy)-7-chloro-2H-isoquinolin-1-one] | 10 to 100 | –

Now from value to molecule:

Row | IC50 [nM] | pIC50 | Compound
11 | 10 to 100 | – | C=CCC1(N)C2CC3CC1CC(Oc1cc4cc[nH]c(=O)c4cc1Cl)(C3)C2 (single isomer, unassigned) [Example 3, 6-(4-Allyl-4-amino-adamantan-1-yloxy)-7-chloro-2H-isoquinolin-1-one]
12 | 10 to 100 | – | CC1(N)C2CC3CC1CC(Oc1cc4cc[nH]c(=O)c4cc1Cl)(C3)C2 (single isomer, unassigned) [Example 8, 6-(4-Amino-4-methyl-adamantan-1-yloxy)-7-chloro-2H-isoquinolin-1-one]
13 | 10 to 100 | – | NC1(C2CC2)C2CC3CC1CC(Oc1cc4cc[nH]c(=O)c4cc1Cl)(C3)C2 (single isomer, unassigned) [Example 11, 6-(4-Amino-4-cyclopropyl-adamantan-1-yloxy)-7-chloro-2H-isoquinolin-1-one]
14 | – | +++++++ (8.0≦pIC50) | Cc1cc2c(=O)[nH]ccc2cc1OC1C2CC3CC1CC(N)(C3)C2 (single isomer, unassigned) [Example 16, 6-(5-Amino-adamantan-2-yloxy)-7-methyl-2H-isoquinolin-1-one]
15 | 100 to 1000 | – | NC12C[C@H]3C[C@@H](C1)CC(Oc1cc4cc[nH]c(=O)c4cc1Cl)(C3)C2 [Example 13, 6-(3-Amino-adamantan-1-yloxy)-7-chloro-2H-isoquinolin-1-one]
16 | 10 to 100 | – | N[C@H]1C[C@H]2COC[C@@H](C1)[C@H]2Oc1cc2cc[nH]c(=O)c2cc1Cl [Example 17, 6-{[(7-Endo,9-anti)-7-amino-3-oxabicyclo[3.3.1]non-9-yl]oxy}-7-chloroisoquinolin-1(2H)-one]
17 | 10 to 100 | – | N[C@H]1C[C@H]2CSC[C@@H](C1)[C@H]2Oc1cc2cc[nH]c(=O)c2cc1Cl [Example 19, 6-{[(7-Endo,9-anti)-7-amino-3-thiabicyclo[3.3.1]non-9-yl]oxy}-7-chloroisoquinolin-1(2H)-one]
18 | 10 to 100 | – | N[C@H]1C[C@H]2CSC[C@@H](C1)[C@@H]2Oc1cc2cc[nH]c(=O)c2cc1Cl [Example 20, 6-{[(7-endo,9-syn)-7-amino-3-thiabicyclo[3.3.1]non-9-yl]oxy}-7-chloroisoquinolin-1(2H)-one]
